Experimental data as given in patent publication US20040019082A1, “Reversible infertility in male mice following oral administration of alkylated imino sugars: a non-hormonal approach to male contraception” (United Therapeutics Corporation, priority 2002, published 2004).

Experiments:
female C57BL/6 mice = assay: Mating assay, fertility of treated female mice; assay type: in vivo, mouse; conditions: 1200 mg/kg/day for five weeks, four-day mating with untreated males, n=5
Method: Mating assays—To assess the fertility of male mice that were fed on a diet containing an iminosugar, a mating assay was used: typically six week old male C57BL/6 mice in groups of three were administered diet containing compound for five weeks (unless otherwise specified), after which each of them was caged with four untreated female C57BL/6 mice, and provided with standard pelleted chow. Females were at least 11 weeks old, and age-matched in each experiment. The male was removed from the females after 7 or 9 days, depending on the experiment; the females were monitored for vaginal mucous plugs, pregnancies, and, if any, litter sizes. To study any effect on female fertility six-week-old female C57BL/6 mice were treated with NB-DNJ for five weeks, after which each of them was caged with a non-treated age-matched male for four days.
Following a four-day mating period with untreated males, 100% of treated (n=5) as well as of non-treated females (n=4) became pregnant; these mice had 6.2±2.7 and 7.8±1.0 pups per litter, respectively.

epididymal spermatozoa [1] = assay: Computer-assisted sperm motility analysis; assay type: in vivo, mouse; conditions: mean ± SD, n ≧ 3
Method: Motility analysis. Mice were terminated by asphyxiation in CO2 and cervical dislocation, and caudae epididymides were removed with vasa deferentia. Spermatozoa were collected in pre-warmed M2 medium (Sigma) by stripping the vasa deferentia and by applying mild pressure to the caudae epididymides; the cells were incubated at 37° C. for 1 hour, and videographed using a Leica DM IRB microscope fitted with a JVC TK-1281 camera. Computer-assisted sperm motility analysis was performed using a Hobson Sperm Tracker (Hobson Vision Ltd., UK) at 50 frames per second. Motility parameters of each sperm sample were measured in triplicate, collecting data from 200 sperm tracks per determination.

epididymal spermatozoa [2] = assay: Fluorescence microscopy of epididymal spermatozoa (nuclear morphology, acrosomal antigens); assay type: in vivo, mouse
Method: Fluorescence microscopy—For immunofluorescence, freshly exised vasa deferentia were stripped and caudae epididymides were dissociated with forceps in M2 medium, and spermatozoa were allowed to disperse for 15 min. The resultant suspensions were used to prepare smears on glass slides. After drying in air for 1 hr, cells were fixed in methanol for 2 min., dried and stored at room temperature or 4° C. for one to five days. Before immunostaining smears were immersed in methanol for 5 min., dried, and wetted in PBS containing 0.5% BSA and 0.15 M glycine (PBG). Slides were stained with monoclonal antibodies, either Mab18.6 (1:20 in PBG (Moore, H. D., Smith, C. A., Hartman, T. D. & Bye, A. P. (1987) Gamete Res 17, 245-9)), anti-sp56 (1:67 in PBG, clone 7C5, QED Bioscience (Cheng, A., Le, T., Palacios, M., Bookbinder, L. H., Wassarman, P. M., Suzuki, F. & Bleil, J. D. (1994) J Cell Biol 125, 867-78), and goat anti-mouse immunoglobulins γ and light chains-specific fluorescein isothiocyanate-conjugate (Ortho) according to van Dongen et al. (van Dongen, J. M., Willemsen, R., Ginns, E. I., Sips, H. j., Tager, J. M., Barranger, J. A. & Reuser, A. J. (1985) Eur J Cell Biol 39, 179-189.) Following immunostaining, nuclei were stained for 2 min in 5 μg/ml Hoechst 33342 (Molecular Probes); slides were rinsed in distilled water, and mounted with Vectashield (Vector). Fluorescent probes were examined using an Olympus BX50 microscope equipped with a Princeton Instruments CCD camera. Images were aquired, false-coloured, and overlaid with Metamorph v3.5 software, and further processed with Adobe Photoshop.

[3] = system: testosterone, luteinising and follicle-stimulating hormones; assay: Endocrinological assays; assay type: in vivo, mouse
Method: Endocrinological assays—Following termination of mice by asphyxiation in CO2 and cervical dislocation, blood was obtained via cardiac puncture, which was allowed to clot at room temperature (RT). Serum was obtained by centrifugation, and stored at −80° C. until use. Testosterone, luteinising and follicle-stimulating hormones were measured by methods well-known in the art (Huhtaniemi, I., Nikula, H. & Rannikko, S. (1985) J Clin Endocrinol Metab 61, 698-704; Haavisto, A. M., Pettersson, K., Bergendahl, M., Perheentupa, A., Roser, J. F. & Huhtaniemi, I. (1993) Endocrinology 132, 1687-91; van Casteren, J. I., Schoonen, W. G. & Kloosterboer, H. J. (2000) Biol Reprod 62, 886-94.)

seminiferous tubules = assay: Testis histology; assay type: in vivo, mouse; conditions: 50 mg/kg/day (FIG. 4B)
Source text: Histology and Scanning electronmicroscopy—Testes were obtained from mice perfused with 4% paraformaldehyde, 1% gluteraldehyde, kept in the fixative for two days, and transferred to 70% ethanol. Tissues were post-fixed with 2% osmium tetroxide, embedded in araldite, sectioned at 1 μm, and stained with Toluidine Blue. Sections were examined with a Zeiss Axioskop II, and images were acquired with an Axiocam camera, operated by Axiovision 3.0 software.

[4] = system: female mice of strain 129; assay: Fertility of treated female mice of strain 129; assay type: in vivo, mouse; conditions: 2400 mg/kg day for 12 weeks, 15 week-old females, caged with untreated males
Method: NB-DNJ was administered at 2400 mg/kg day for 12 weeks to 15 week-old female mice of strain 129. After this, the drug was withdrawn and the females were caged with untreated males of strain 129. […] The mice in this experiment were heterozygous for a disruption in the gene encoding ceramide galactosyltransferase. These mice are phenotypically indistinguishable from wild-type 129 mice and reproduce normally (Coetzee et al., (1996), Cell, 86:209-219).

[5] = humans; cited from earlier work

CCCCN1C[C@H](O)[C@@H](O)[C@H](O)[C@H]1CO [NB-DNJ, N-butyldeoxynojirimycin]
females that became pregnant (female C57BL/6 mice): 100% | pups per litter (female C57BL/6 mice): 6.2±2.7 | % motile (epididymal spermatozoa [1]; NB-DNJ 15 mg/kg/day): 26 ± 16% | VCL, curvilinear velocity (epididymal spermatozoa [1]; NB-DNJ 15 mg/kg/day): 74 ± 31 μm/sec | VSL, straight line velocity (epididymal spermatozoa [1]; NB-DNJ 15 mg/kg/day): 27 ± 9 μm/sec | % motile (epididymal spermatozoa [1]; NB-DNJ 150 mg/kg/day): 15 ± 6% | VCL, curvilinear velocity (epididymal spermatozoa [1]; NB-DNJ 150 mg/kg/day): 89 ± 31 μm/sec | VSL, straight line velocity (epididymal spermatozoa [1]; NB-DNJ 150 mg/kg/day): 27 ± 8 μm/sec | % motile (epididymal spermatozoa [1]; NB-DNJ 1200 mg/kg/day): 17 ± 7% | VCL, curvilinear velocity (epididymal spermatozoa [1]; NB-DNJ 1200 mg/kg/day): 49 ± 17 μm/sec | VSL, straight line velocity (epididymal spermatozoa [1]; NB-DNJ 1200 mg/kg/day): 18 ± 9 μm/sec | % motile (epididymal spermatozoa [1]; NB-DNJ 2400 mg/kg/day): 9 ± 2% | VCL, curvilinear velocity (epididymal spermatozoa [1]; NB-DNJ 2400 mg/kg/day): 28 ± 21 μm/sec | VSL, straight line velocity (epididymal spermatozoa [1]; NB-DNJ 2400 mg/kg/day): 9 ± 5 μm/sec | fraction of spermatozoa stained with Mab18.6 or anti-sp56 (acrosomal antigens) (epididymal spermatozoa [2]; 15 mg/kg/day): below 10% | nuclear shape of cauda epididymal sperm cells (epididymal spermatozoa [2]; 150 mg/kg/day (FIGS. 4D-4F)): various abnormally shaped nuclei | frequency of antibody staining (acrosomal antigens) (epididymal spermatozoa [2]; 1200 mg/kg/day compared with 15-150 mg/kg/day): more frequent | frequency of normal nuclear morphology (epididymal spermatozoa [2]; 1200 mg/kg/day compared with 50-150 mg/kg/day, p<0.01): significantly more often | incidence of (near)-normal acrosomal staining among Mab18.6-positive cells (epididymal spermatozoa [2]; 15 to 1200 mg/kg/day, average, n=3): 31±10% | percentage of caudal spermatozoa with (near)-normal nuclei (epididymal spermatozoa [2]; minimal dose to achieve complete infertility): below 6% | serum testosterone, FSH, LH and testicular testosterone ([3]; 2400 mg/kg/day, p<0.001): significant reduction | serum testosterone, FSH, LH and testicular testosterone ([3]; 15, 150 or 1200 mg/kg/day): did not change | morphology of nuclei of mature spermatids (seminiferous tubules): aberrant, heterogeneous morphology | vacuolization in seminiferous tubules versus controls (seminiferous tubules): more extensive vacuolization | average litter size [4]: 6 pups | pregnancy after drug withdrawal [4]: All females quickly became pregnant | tolerability [5]: well tolerated
